# Data as given in doi:10.1101/572578v1 (biorxiv, 2019).
# Assays:
# Experiment in all cases: intrinsic fluorescence quenching titration
# Format in all cases: binding
# [1] = target: COMMD1 (Homo sapiens, UniProt Q8N668, K167E/K173E)
# [2] = target: COMMD1 (Homo sapiens, UniProt Q8N668, T174M)
# [3] = target: COMMD1 (Homo sapiens, UniProt Q8N668)
# Sequence of COMMD1 (Homo sapiens, UniProt Q8N668) (Q8N668 whole entry): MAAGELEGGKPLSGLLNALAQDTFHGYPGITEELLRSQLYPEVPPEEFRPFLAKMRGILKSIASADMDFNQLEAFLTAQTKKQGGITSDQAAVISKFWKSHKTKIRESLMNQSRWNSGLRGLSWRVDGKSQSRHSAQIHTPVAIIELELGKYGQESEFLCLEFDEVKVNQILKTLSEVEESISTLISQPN
# Sequence of COMMD1 (Homo sapiens, UniProt Q8N668, K167E/K173E) (Q8N668 whole entry K167E/K173E): as the sequence (Q8N668 whole entry) above, with K167E, K173E counted along it
# Sequence of COMMD1 (Homo sapiens, UniProt Q8N668, T174M) (Q8N668 whole entry T174M): as the sequence (Q8N668 whole entry) above, with T174M counted along it
smiles,measurement,setting,value
"CCCCCC(=O)OC[C@H](COP(=O)(O)O[C@@H]1[C@H](O)[C@H](O)[C@@H](OP(=O)(O)O)[C@H](OP(=O)(O)O)[C@H]1O)OC(=O)CCCCC [PtdIns(4,5)P2]",Kd,[1],284 nM
same,Kd,[2],62.5 nM
same,Kd,[3],40.4 nM
